What all share (assay type): in vivo
One assay relates to Radish. Description: Greenhouse radish crop, spraying after emergence. As to conditions: 0.01 g/m^2 per treatment, two treatments at an interval of 4 days; for Radish crop roots only: untreated control 165; for Radish crop whole plants: untreated control 198.
In the next assay the test system is lettuce. Description: Field trial on lettuce, 4 weekly treatments. The note with it: 2 g/100 m^2 per treatment, untreated control 18.0.
Another assay relates to spinach. Put plainly: Field trial on spinach, 4 weekly treatments. As to conditions: 2 g/100 m^2 per treatment, untreated control 8.3.
A further assay concerns San Marzano tomatoes. Description: Field trial on tomatoes, spraying before and after flowering. As to conditions: 3 g/100 m^2 per treatment, 2 treatments before flowering and 3 weekly after flowering; untreated control 321.
The next assay concerns Italy grapevines. Description: Vineyard trial, applications mixed with fungicides. The note with it: 1 g/100 m^2, 2 weekly applications before and 6 after flowering, mixed with fungicide mixtures; untreated control 234.
Assay [1] concerns thiosemicarbazide-treated rabbits with epileptic type syndromes. Description: Intramuscular injection in rabbits with epileptic type syndromes. As to conditions: 1 ml of 10% aqueous solution, as long as the level of the compound remains adequate. As for the experimental part: Prepare an aqueous solution containing 10% pure N-carboxymethyl-gamma-aminobutyric acid disodium salt and autoclave for 2 h at 115°C.
Inject very slowly by intramuscular route 1 ml of the solution thus prepared in thiosemicarbazide-treated rabbits with epileptic type syndromes.

Where a name gives a salt, the structure may show the parent alone.

For the compound `O=C([O-])CCCNCC(=O)[O-].[Na+].[Na+]` [N-carboxymethyl gamma-amino-butyric acid disodium salt], in the assay with Radish, the “Radish crop roots only” value was determined as 280 g/m^2 and the “Radish crop whole plants” value is 350 g/m^2. In addition, the “Harvest Lettuce” value in the assay on lettuce amounted to 26.5 kg/100 m^2. Further, the “Harvest Spinach” value with spinach was 12.6 kg/100 m^2. The same compound had a Fruit harvest in the assay with San Marzano tomatoes of 569 kg/100 m^2. The Grape harvest in the assay on Italy grapevines is given as 351 kg/100 m^2. For the same compound, the convulsions entry in assay [1] is “convulsions disappear”.

On to `CC(NCCCC(=O)O)C(=O)O` (stereo not shown) [N-methylcarboxymethyl-gamma-aminobutyric acid disodium salt], for which, in the assay on Radish, the “Radish crop roots only” value worked out at 262 g/m^2 and the “Radish crop whole plants” value is reported as 321 g/m^2. In the assay on lettuce, the “Harvest Lettuce” value was determined as 24.3 kg/100 m^2. Also, the “Harvest Spinach” value in the assay on spinach is 11.5 kg/100 m^2. The same compound gave a Fruit harvest in the assay on San Marzano tomatoes of 513 kg/100 m^2. Moreover, the Grape harvest with Italy grapevines stood at 320 kg/100 m^2.

As for `NCCCCNCC(=O)[O-].[Na+]` [N-carboxymethyl-1,4-diamino-butane sodium salt], in the assay on Radish, the “Radish crop roots only” value was determined as 272 g/m^2 and the “Radish crop whole plants” value came to 335 g/m^2. Besides, in the assay with lettuce, the “Harvest Lettuce” value is listed as 23.5 kg/100 m^2. Moreover, the “Harvest Spinach” value with spinach is recorded as 11.8 kg/100 m^2. The same compound gave a Fruit harvest in the assay on San Marzano tomatoes of 574 kg/100 m^2. In addition, in the assay with Italy grapevines, the Grape harvest was 345 kg/100 m^2.

The values are drawn from patent EP0101588A1, “Compositions comprising amino and diamino acid derivatives and use thereof as plant growth stimulants” (S.I.P.C.A.M. S.p.A. Società Italiana Prodotti Chimici e per …, priority 1982, dated 1984).
